Results taken from US6333406A, “Gene encoding protein antigens of Plasmodium falciparum and uses therefor” (priority 1994, dated 2001).
Values joined by “and” are separate entries in the source; they are usually repeats but may differ in a detail not shown here. Equal entries are not always repeated.

Experiments:
[1] = molecular target: T1, DHFR^Ser108 (reconstructed P. falciparum DHFR) (Plasmodium falciparum, UniProt P13922, N108S/R59C); experiment: Inhibition of recombinant DHFR activity, spectrophotometric assay with Dixon plot analysis; type: biochemical
T1 construct: The gene encoding DHFR part of the P. falciparum DHFR-TS complex; made in house; host or cells: E. coli JM103, plasmid pET-PfDHFR^Ser108 (pET-3a), induced with M13-pKM2
Description: (§1) The decrease in A340 was monitored by a HITACHI spectrophotometer U-2000. The blank sample consisted of all the reaction components except the enzyme.

[2] = tested on: DHFR^Thr108 (reconstructed P. falciparum DHFR); conditions: Dixon plots for DHFR^Thr108 and DHFR^Ser108 (FIGS. 19A-19F)
Description: as §1

[3] = tested on: NC(=O)C1=CN([C@@H]2O[C@H](COP(=O)(O)OP(=O)(O)OC[C@H]3O[C@@H](n4cnc5c(N)ncnc54)[C@H](OP(=O)(O)O)[C@@H]3O)[C@@H](O)[C@H]2O)C=CC1; experiment: purified protein, by the assay type; conditions: other: substrate Km, reconstructed P.f. DHFR Thr108 (Table IV); pH 7.6; 37.0 °C
[4] = molecular target: SE47' recombinant SERA protein produced in E. coli (Plasmodium falciparum); experiment: ELISA of control mouse serum
[5] = molecular target: SE50A recombinant SERA protein produced in E. coli (Plasmodium falciparum); experiment: ELISA of control rat serum
SERA protein = experiment: Immunoblot of whole cellular proteins of Plasmodium falciparum FCR3 strain with antiserum against SE47' or SE50A; type: binding; conditions: mouse anti-SE47' serum, rat anti-SE50A serum
Description: The antisera used for the immunoblot were as follows: lane 1, control mouse serum; lane 2, mouse anti-SF47' serum; lane 3, control rat serum; lane 4, rat anti-SE50A serum. The arrow indicates the molecular weight corresponding to SERA protein.
Parasite cells were isolated by saponin lysis of the in vitro culture. The prepared cells were analyzed by immunoblotting using SDS-polyacrylamide gel electrophoresis (12.5%). The antisera used for the immunoblot (FIG. 15) were as follows: lane 1, control mouse serum; lane 2, mouse #3 anti-SE47' serum; lane 3, control rat serum; lane 4, rat #1 anti-SE50A serum. The arrow indicates the molecular weight corresponding to SERA protein.

[6] = tested on: Plasmodium falciparum (FCR3); experiment: Plasmodium falciparum growth inhibition with anti-SERA serum; type: cell-based; conditions: FCR3 culture, serum dilutions, parasitemia after 72 hours (FIGS. 16A-16B)
Description: FIGS. 16A and 16B show Plasmodium falciparum growth inhibition with anti-SER47' and anti-SE50A serum. […] The inhibition confirms that the new constructs of SERA (FIG. 10, FIG. 11, and FIG. 12) produce immunogenic material and that adjuvant enhances the induction of parasite inhibitory levels of antibodies.
The Plasmodium falciparum cell (FCR3) was grown in an in vitro culture containing 5% red blood cells (RBC). When the parasitized RBC, 96% were trophozoite and schizont, reached 4.4% of total RBC, the culture was diluted to 1% of parasitized cell in total RBC and 2% of RBC in medium. The 100 µl of the diluted culture was incubated in a 96 well dish. The culture media which contains rat or mouse serum at the indicated dilution were changed each 24 hours. Parasitemia was measured by Giemsa staining after 72 hours incubation. The sera used here were from the animal #3 of SE47' and #1 of SE50A, each of whose ELISA titer was described in Table VI.

SE50A = experiment: ELISA value of rat sera immunized with recombinant SERA protein SE50A; type: in vivo; conditions: individual rats 1-3; subcutaneous, insoluble form without adjuvant, days 1, 22, 50
Description: The SE50A protein was produced in E. coli cells as described for SE47'. The products were obtained as an inclusion body in the precipitate of lysed cells. The precipitate was solubilized with a buffer containing 5M guanidine HCl. After removal of insoluble materials, SE50A protein was precipitated by removing the 5M guanidine HCl again. These processes were repeated 3 times. The final precipitate contained SE50A at more than 80% purity. Three rats were immunized by subcutaneous injection of the insoluble form of SE50A without adjuvant three times on days 1, 22, and 50.

[7] = substrate Km of DHFR^Ser108, as stated in text
[8] = substrate Km, reconstructed P.f. DHFR Ser108 (Table IV)

Molecule `Nc1nc2c(c(=O)[nH]1)N=C(CNc1ccc(C(=O)N[C@@H](CCC(=O)O)C(=O)O)cc1)CN2` [DHF] has a Km [1, 7] of 67 µM and a Km [1, 8] of 66.6 ± 2.6 µM.

In the case of `NC(=O)C1=CN([C@@H]2O[C@H](COP(=O)(O)OP(=O)(O)OC[C@H]3O[C@@H](n4cnc5c(N)ncnc54)[C@H](OP(=O)(O)O)[C@@H]3O)[C@@H](O)[C@H]2O)C=CC1` [NADPH], the Km [1, 7] is reported as 90 µM and the Km [1, 8] is reported as 90.2 ± 4.3 µM.

`CN(Cc1cnc2nc(N)nc(N)c2n1)c1ccc(C(=O)N[C@@H](CCC(=O)O)C(=O)O)cc1` [methotrexate] was tested, and the “manner of enzyme inhibition” value [2] was “competitive”.

With `CCc1nc(N)nc(N)c1-c1ccc(Cl)cc1` [pyrimethamine] the “manner of enzyme inhibition” value [2] was “competitive”.

With “DHFR^Thr108 (reconstructed P. falciparum DHFR) (Plasmodium falciparum K1; N108T/R59C)” the Km [3] was 19.2 ± 0.4 µM.

“control mouse serum (polyclonal serum or antibody)” was tested, and the ELISA Titer [4] was less than 200.

“control rat serum (polyclonal serum or antibody)” was tested, and the ELISA Titer [5] was less than 50.

B1: SE50A: recombinant portion of the 50 kd processed SERA protein, SEQ ID NO: 17, produced in E. coli as inclusion body (protein)
chain: MKDENNCISNLQVEDQGNCDTSWIFASKYHLETIRCMKGYEPTKISALYVANCYKGEHKDRCDEGSSPMEFLQIIEDYGFLPAESNYPYNYVKVGEQCPKVEDHWMNLWDNGKILHNKNEPNSLDGKGYTAYESERFHDNMDAFVKIIKTEVMNKGSVIAYIKAENVMGYEFSGKKVQNLCGDDTADHAVNIVGYGNYVNSEGEKKSYWIVRNSWGPYWGDEGYFKVDMYGPTHCHIEF
In the case of B1, the “recognition of SERA protein by antiserum in immunoblot” value (SERA protein) is reported as “recognize the complete SERA protein”, the “parasite growth inhibition by antiserum raised against the protein” value [6] is reported as “indistinguishable from control serum except at the lowest dilution” and the “ELISA Titer” value (SE50A) is reported as 10,000 and 8,330.
